Laboratory results: patent US20250312310A1, “Beta2-adrenergic receptor antagonists for use in treating diabetes or obesity” (NovelYeast bv, priority 2021, published 2025)
Entries after “also recorded” stand apart in the source; their conditions may differ. Where two headings read alike, the source gives them in different places. Blank lines part the entries; values can stand above or below the molecule they belong to. The star is where a group is joined. Myristoyl = CCCCCCCCCCCCCC(=O)*

Experiments:
[1] = target: T1, human β2-AR (Homo sapiens, UniProt P07550); test: Calcium response (Fluo-4) in Flp-In-293 cells stably transfected with ADRB2 and GNA15; type: cell-based; details: for Activation of the β2-AR by sugars (calcium response): sugars at 50 mM, listed in order of decreasing intensity
T1 sequence (P07550 whole entry): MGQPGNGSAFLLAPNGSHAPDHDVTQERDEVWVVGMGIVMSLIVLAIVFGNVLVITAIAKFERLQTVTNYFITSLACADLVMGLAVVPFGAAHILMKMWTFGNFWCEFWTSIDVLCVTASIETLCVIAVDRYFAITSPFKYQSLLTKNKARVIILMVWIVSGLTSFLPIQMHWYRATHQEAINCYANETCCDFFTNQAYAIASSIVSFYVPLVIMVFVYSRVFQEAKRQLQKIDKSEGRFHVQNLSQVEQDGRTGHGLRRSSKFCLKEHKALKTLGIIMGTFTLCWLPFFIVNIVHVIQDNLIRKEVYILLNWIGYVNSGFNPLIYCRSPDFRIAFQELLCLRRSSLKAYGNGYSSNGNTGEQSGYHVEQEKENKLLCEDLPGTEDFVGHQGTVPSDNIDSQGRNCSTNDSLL

[2] = system: everted sacs prepared from rat intestine; test: Glucose uptake into everted sacs of rat intestine; details: for Effect on epinephrine stimulation of glucose uptake: epinephrine 10 μM, colchicine 5 μM, mPKI 1 μM
Experimental: Rats weighing around 150 g were fasted overnight before the experiment, and euthanized by cervical dislocation on the day of the experiment. The abdomen was opened by a midline incision, and a segment of around 35 cm of proximal intestine was isolated. The intestinal segment was rinsed with ice-cold Ringer solution (composition (mM): 140 NaCl, 5 KCl, 1 MgCl2, 2 CaCl2, 10 HEPES, 10 TRIS, gassed with 95% O2 and 5% CO2, pH 7.4), and 4-7 everted sacs were prepared, each approximately 3 cm in length, by tying off the ends of the intestinal segments with threads (46). The sacs were filled with Ringer solution containing 5 mM mannitol (Sigma Aldrich) (to maintain osmotic balance) and L-glutamine (2 mM) (Sigma Aldrich) (as an energy source). Each everted sac was transferred to a separate glass beaker containing 50 mL continuously oxygenated Ringer solution with L-glutamine (2 mM), and maintained in a water bath at 37° C. Then, epinephrine 10 μM (Sigma Aldrich), mannose 5 mM (Sigma Aldrich), ICI 118,551 10 μM (Sigma Aldrich), phlorizin 100 μM (Sigma Aldrich), LX4211 2 μM (MedKoo Biosciences, Inc. USA.) or Ringer solution were added to the respective beaker for a 15-min pre-incubation (concentrations indicate final concentrations of the compounds). For the sacs treated with ICI 118,551, phlorizin or LX 4211, the inhibitors were added before mannose or epinephrine. After pre-incubation, 5 mM glucose, or 2.5 mM glucose for the ICI 118,551 control experiment, was added to the external buffer to initiate glucose transport. […] These samples were analyzed using a glucose assay kit based on glucose oxidase (Sigma Aldrich, for details, see below). […] Also for colchicine, a TRIS-free Ringer solution was used, as TRIS interferes with colchicine activity (130). […] We noticed that it was important to take certain precautions during these experiments: the intestine was never allowed to overfill and be stretched while rinsing the intestinal lumen at the time of isolation and filling the everted sac with Ringer solution. Trapping air bubbles inside the everted sac was avoided. Also, the regions of the intestine where mucus was still present were not used for preparing everted sacs. […] The glucose concentration of the samples was assayed by a glucose assay kit (Sigma Aldrich, GOD/POD method). The assay procedure recommended by the kit was modified for small sample volumes as follows. Fifty μL of sample was transferred to a well of a 96-well plate, and at time zero, the reaction was started by adding 100 μL of assay reagent to the first well, and mixing. Each well was allowed to react for exactly 30 min at 37° C. The reaction was stopped by adding 100 μL of 12 N H2SO4 (Merck) into each well, and carefully mixing. The absorbance was measured at 540 nm with a plate reader (Tecan 200).

[3] = target: T1, human β2-AR; details: Xenopus oocytes, CFTR readout
[4] = system: HEK-293 cells (endogenous β2-AR); details: 1 μM epinephrine
[5] = Rattus norvegicus, 1.25 h, phlorizin 100 μM, LX4211 2 μM, glucose accumulated after 75 min
[6] = ICI 118,551 10 μM, phlorizin 100 μM

Molecule: CCOc1ccc(Cc2cc([C@@H]3O[C@H](SC)[C@@H](O)[C@H](O)[C@H]3O)ccc2Cl)cc1 [LX4211]
- Inhibition of the stimulation of glucose transport by mannose ([2]; LX4211 2 μM (also inhibits glucose transport itself), ICI 118,551 10 μM): completely inhibited
- inhibition at 2 µM [2, 5]: > 90%

Molecule: O=CC[C@@H](O)[C@H](O)[C@H](O)CO [2 deoxy-D-glucose]
- Activation of the β2-AR by sugars (calcium response) [1]: activated

Molecule: Myristoylated PKI 14-22 amide (Myristoyl-GRTGRRNAI-NH2; SMILES CCCCCCCCCCCCCC(=O)NCC(=O)N[C@@H](CCCNC(=N)N)C(=O)N[C@H](C(=O)NCC(=O)N[C@@H](CCCNC(=N)N)C(=O)N[C@@H](CCCNC(=N)N)C(=O)N[C@@H](CC(N)=O)C(=O)N[C@@H](C)C(=O)N[C@H](C(N)=O)[C@@H](C)CC)[C@@H](C)O; UniProt P61925 15-23, looked up, fragment)
- Effect on epinephrine stimulation of glucose uptake [2, 6]: partially inhibited

Molecule: O=C(CCc1ccc(O)cc1)c1c(O)cc(O)cc1O[C@@H]1O[C@H](CO)[C@@H](O)[C@H](O)[C@H]1O [phlorizin]
- inhibition at 100 µM [2, 5]: > 90%
- Effect on epinephrine stimulation of glucose uptake [2, 6]: inhibited both basal and enhanced glucose uptake

Molecule: CNC[C@H](O)c1ccc(O)c(O)c1 [epinephrine]
- Activation of the β2-AR (inward current and conductance) [3]: activated
- Calcium response in non-transfected HEK-293 cells [4]: failed to show a calcium response
- Calcium response in non-transfected HEK-293 cells ([4]; listed as Epinephrine): did not elicit a calcium response
- Glucose accumulated after 10 min in the sac ([2]; epinephrine 10 μM in external medium, 5 mM glucose, without epinephrine 440±132): 833 ± 255 µM

The next lines start with the values.

- Inhibition of the epinephrine response ([1]; 200 μM antagonist, 20 nM epinephrine): Inhibition
- Inhibition of sugar responses ([1]; 200 μM antagonist, 70 mM sugar): inhibited; also recorded: Inhibition
- Block of the calcium response to epinephrine ([1]; Flp-In-293 β2-AR/Gα16 cells, Fluo4 fluorescence (FIG. 2a)): blocked
Molecule: CC(C)(C)NCC(O)COc1cccc2c1CC(O)C(O)C2 (centres unmarked) [nadolol, reference compound]

- Activation of the β2-AR by sugars (calcium response) [1]: activated
Molecule: OC[C@H]1O[C@H](O[C@H]2[C@H](O)[C@@H](O)C(O)O[C@@H]2CO)[C@H](O)[C@@H](O)[C@@H]1O (mixture of isomers) [maltose]

- Activation of the β2-AR by sugars (calcium response) [1]: activated
Molecule: OC[C@H]1O[C@H](O[C@H]2O[C@H](CO)[C@@H](O)[C@H](O)[C@H]2O)[C@H](O)[C@@H](O)[C@@H]1O [trehalose]

- Activation of the β2-AR by sugars (calcium response) [1]: very little effect
Molecule: N[C@H]1C(O)O[C@H](CO)[C@@H](O)[C@@H]1O (some centres unmarked) [Glucosamine]

- Activation of the β2-AR by sugars (calcium response) [1]: activated
Molecule: O=C(CO)[C@@H](O)[C@H](O)[C@H](O)CO [fructose]
